The values below come from US5182280A, “Derivatives of benzimidazole and their use as antihistamines” (Laboratorios Del Dr. Esteve, S. A., priority 1990, dated 1993).

In series [1] the test system is death induced by compound 48/80. Nature of the series: "In vivo" antihistaminic activity: protection from death induced by 48/80 in the rat. The conditions noted are these: ip, i.p. 60 min before 48/80 (0.5 mg/kg, i.v.), survival 4 h after, read-out: ED-50, protection from death induced by 48/80. On the procedure: The antihistaminic activity was studied by determining the protection in the face of the mortality induced by the product 48/80 in the rat. This test was realized in accordance with the technique described by C. J. E. Niemegeers and cols. (Arch, int. Pharmacodyn. 234, 164-176 (1978).
The products according to the present invention are administered i.p. to rats. After 60 minutes the compound 48/80 is administered (0.5 mg/kg, i.v.). The protective activity is defined as the survival of the rats 4 hours after the i.v. injection of 48/80.
The activity of the products at several doses in order to determine the dose capable of protecting 50% of the animals (ED-50) was studied.

Series [2] is described as follows: Sedative effect: Irwin test (passivity and ataxia). It counts as in vivo. The conditions noted are these: rats, i.p., 1, 2 and 3 hours after treatment. On the procedure:
Pas.: Passivity, sedation, prostration. Quantitative evaluation between 0 and 3. They were performed 1, 2 and 3 hours after the treatment.
Atax.: Ataxia, the alterations in coordination in locomotion were evaluated. They were evaluated between 0 and 3. They were performed 1, 2 and 3 hours after the treatment.

The subject of series [3] is sleep time induced by pentobarbital. As to the kind of experiment: Sedative effect: potentiation of the sleep time induced by pentobarbital. The following applies: for Potentiation of sleep time (in words): orally; for Potentiation of sleep time: 1 h before sodium pentobarbital (35 mg/kg, s.c.).
Description: Study of the potentiation of the sleep time due to pentobarbital was carried out by following the method described by L. E. Allen and cols. […] The products studied were administered orally. […] The sleep time was compared with a group of control animals, treated only with sodium pentobarbital.

`CN(C)CCOC(c1ccccc1)c1ccccc1` [Difenhidramine, reference compound]: the ED50 in series [1] was 0.84 mg/kg. For the same compound, in series [2] (40 mg/kg), the “Atax. (ataxia; score 0 to 3)” value stood at 0.9 and the “Pas. (passivity, sedation, prostration; score 0 to 3)” value is listed as 0. The “Potentiation of sleep time (in words)” value in series [3] (20 mg/kg) is “potentiates significantly the sleep time”.
With `CCOCCn1c(CN2CCN(CCCCn3cc(Br)cn3)CC2)nc2ccccc21` [Example 1, 1-(2-Ethoxyethyl)-2-4-[4--(4-bromopyrazol-1-yl)butyl]piperazin-1-ylmethyl benzimidazole], the ED50 in series [1] is 0.09 mg/kg. Further, in series [2] (80 mg/kg), the “Atax. (ataxia; score 0 to 3)” value worked out at 1.3 and the “Pas. (passivity, sedation, prostration; score 0 to 3)” value is listed as 1.4.
Regarding `CCOCCn1c(N2CCN(CCCCn3cc(Br)cn3)CC2)nc2ccccc21` [Example 2, 1-(2-Ethoxyethyl)-2-4-[4-(4-bromopyrazol1yl)butyl]piperazinyl benzimidazole], the ED50 in series [1] stood at 2.7 mg/kg. Moreover, the “Atax. (ataxia; score 0 to 3)” value is 0.4 in series [2] (40 mg/kg) and 1.3 in series [2] (80 mg/kg). For the same compound, the “Pas. (passivity, sedation, prostration; score 0 to 3)” value in series [2] (40 mg/kg) is given as 0; in series [2] (80 mg/kg) it was 0.7.
In the case of `CCOCCn1c(CN2CCN(CCCCn3ccnc3)CC2)nc2ccccc21` [Example 3, 1-(2-Ethoxyethyl)-2-4-[4-(imidazol-1-yl)butyl]piperazin-1-ylmethyl benzimidazole], the ED50 in series [1] amounted to 0.13 mg/kg. Also, in series [2] (80 mg/kg), the “Atax. (ataxia; score 0 to 3)” value is 0 and the “Pas. (passivity, sedation, prostration; score 0 to 3)” value was 0.
Take `CCOCCn1c(CN2CCN(CCCCn3cncn3)CC2)nc2ccccc21` [Example 4, 1-(2-Ethoxyethyl)-2-4-[4-(1,2,4-triazol-1-yl)butyl]piperazin-1-ylmethyl benzimidazole]: the ED50 in series [1] is 0.036 mg/kg. In addition, in series [2] (80 mg/kg), the “Atax. (ataxia; score 0 to 3)” value came to 0.5 and the “Pas. (passivity, sedation, prostration; score 0 to 3)” value is reported as 0.4.
As to `CCOCCn1c(CN2CCN(CCCCn3cc(S(=O)(=O)O)cn3)CC2)nc2ccccc21` [Example 5, 1-(2-Ethoxyethyl)-2-4-[4-(4-sulfopyrazol-1-yl)butyl]piperazin-1-ylmethyl benzimidazole], the ED50 in series [1] was found to be 2.6 mg/kg. Moreover, in series [2] (80 mg/kg), the “Atax. (ataxia; score 0 to 3)” value amounted to 0.4 and the “Pas. (passivity, sedation, prostration; score 0 to 3)” value was 0.4.
As for `CCOCCn1c(CN2CCN(CCCCn3cc(C(=O)O)cn3)CC2)nc2ccccc21` [Example 6, 1-(2-Ethoxyethyl)-2-4-[4-(4-carboxypyrazol-1-yl)butyl]piperazin-1-ylmethylbenzimidazole], in series [1], the ED50 turned out to be 0.064 mg/kg. For the same compound, in series [2] (80 mg/kg), the “Atax. (ataxia; score 0 to 3)” value came to 0 and the “Pas. (passivity, sedation, prostration; score 0 to 3)” value is 0.
In the case of `CCOCCn1c(CN2CCN(CCCCn3cccn3)CC2)nc2ccccc21` [Example 7, 1-(2-Ethoxyethyl)-2-4-[4-(pyrazol-1-yl)butyl]piperazin-1-ylmethyl benzimidazole], the ED50 in series [1] came to 0.02 mg/kg. For the same compound, the “Atax. (ataxia; score 0 to 3)” value came out at 0 in series [2] (80 mg/kg) and 0.3 in series [2] (160 mg/kg). In addition, the “Pas. (passivity, sedation, prostration; score 0 to 3)” value in series [2] (80 mg/kg) and in series [2] (160 mg/kg) was 0 throughout. Also, the “Potentiation of sleep time” value in series [3] (80 mg/kg orally) came out at 10%; in series [3] (160 mg/kg orally) it was 11%; in series [3] (320 mg/kg orally), 22%. Further, the “Potentiation of sleep time (in words)” value in series [3] (320 mg/kg, maximum dose tested) was “does not potentiate the sleep time”.
For `CCOCCn1c(CN2CCN(CCCCn3cccc3)CC2)nc2ccccc21` [Example 8, 1-(2-Ethoxyethyl)-2-4-[4-(pyrrol-1-yl)butyl]piperazin-1-yl-methyl benzimidazole], in series [1], the ED50 is 0.02 mg/kg. Besides, in series [2] (80 mg/kg), the “Atax. (ataxia; score 0 to 3)” value stood at 0 and the “Pas. (passivity, sedation, prostration; score 0 to 3)” value is given as 0.
Consider `CCOCCn1c(N2CCN(CCCCn3cc(C(=O)O)cn3)CC2)nc2ccccc21` [Example 9, 1-(2-Ethoxyethyl)-2-4-[4-(4-carboxypryazol-1-yl)butyl]piperazine-1-yl benzimidazole], for which the ED50 in series [1] came to 0.84 mg/kg. Further, in series [2] (80 mg/kg), the “Atax. (ataxia; score 0 to 3)” value is listed as 0 and the “Pas. (passivity, sedation, prostration; score 0 to 3)” value was found to be 0.
With `CCOCCn1c(CN2CCN(CCCCn3cnc(Cl)c3Cl)CC2)nc2ccccc21` [Example 10], the ED50 in series [1] stood at 0.66 mg/kg.
